The subject of one assay is HBV rcDNA in HepDE19 cells. Kind of assay: HepDE19 assay with bDNA quantitation of HBV rcDNA. The class given is cell-based, hepatitis B virus (HBV). The following applies: Hepatitis B virus, HepDE19, 168 h, inhibition of rcDNA formation in HepDE19 cells (HepG2 derived), Tet-free medium, 7 day incubation, Quantigene 2.0 bDNA readout, top concentration 25 μM; read-out: DE-19bDNA EC50. As for the experimental part:
HepDE19 Assay with bDNA Quantitation of HBV rcDNA:
HepDE19 cell culture system is a HepG2 (human hepatocarcinoma) derived cell line that supports HBV DNA replication and cccDNA formation in a tetracycline (Tet)-regulated manner and produces HBV rcDNA and a detectable reporter molecule dependent on the production and maintenance of cccDNA (Guo, et al., 2007, J. Virol. 81:12472-12484).
HepDE19 (50,000 cells/well) were plated in 96-well collagen-coated tissue-culture treated microtiter plates in DMEM/F12 medium supplemented with 10% fetal bovine serum, 1% penicillin-streptomycin and 1 μg/mL tetracycline and incubated in a humidified incubator at 37° C. and 5% CO2 overnight. Next day, the cells were switched to fresh medium without tetracycline and incubated for 4 hours at 37° C. and 5% CO2. The cells were treated with fresh Tet-free medium with compounds at concentrations starting at 25 μM and a serial, […], 8-point, titration series in duplicate. The final DMSO concentration in the assay was 0.5%. The plates were incubated for 7 days in a humidified incubator at 37° C. and 5% CO2. Following a 7 day-incubation, the level of rcDNA present in the inhibitor-treated wells was measured using a Quantigene 2.0 bDNA assay kit (Affymetrix, Santa Clara, Calif.) with HBV specific custom probe set and manufacturers instructions. Concurrently, the effect of compounds on cell viability was assessed using replicate plates, plated at a density of 5,000 cells/well and incubated for 4 days, to determine the ATP content as a measure of cell viability using the cell-titer glo reagent (CTG; Promega Corporation, Madison, Wis.) as per manufacturer's instructions. The plates were read using a Victor luminescence plate reader (PerkinElmer Model 1420 Multilabel counter) and the relative luminescence units (RLU) data generated from each well was calculated as % inhibition of the untreated control wells and analyzed using XL-Fit module in Microsoft Excel to determine EC50 and EC90 (bDNA) and CC50 (CTG) values using a 4-parameter curve fitting algorithm.
Representative compounds of the disclosure were tested for their abilities to inhibit formation of relaxed circular DNA (rcDNA) in a HepDE19 assay, as described elsewhere herein.
Turning to `CN(C(=O)Nc1ccc(F)c(Cl)c1)C1CCCc2[nH]c(=O)c3ccccc3c21` (racemic) [Compound 6, 3-(3-Chloro-4-fluorophenyl)-1-methyl-1-(6-oxo-1,2,3,4,5,6-hexahydrophenanthridin-1-yl)urea], the EC50 (in general, the concentration needed to bring the measured effect to its halfway point) was 80 nM.
Regarding `CN(C(=O)Nc1ccc(F)c(Cl)c1)C1CCCc2[nH]c(=O)c3cc(F)c(F)cc3c21` (racemic) [Compound 15, 3-(3-Chloro-4-fluorophenyl)-1-(8,9-difluoro-6-oxo-1,2,3,4,5,6-hexahydrophenanthridin-1-yl)-1-methylurea], the EC50 was found to be 20 nM.
As for `CN(C(=O)Nc1ccc(F)c(Cl)c1)C1COCc2[nH]c(=O)c3ccccc3c21` (racemic) [Compound 18, 3-(3-Chloro-4-fluorophenyl)-1-methyl-1-(6-oxo-1,4,5,6-tetrahydro-2H-pyrano[3,4-c]isoquinolin-1-yl)urea], the EC50 was determined as 30 nM.
Same read-out and setting: under `CN(C(=O)Nc1ccc(F)c(Cl)c1)C1COCc2[nH]c(=O)c3cc(F)ccc3c21` (racemic) [Compound 23, 3-(3-Chloro-4-fluorophenyl)-1-(8-fluoro-6-oxo-1,4,5,6-tetrahydro-2H-pyrano[3,4-c]isoquinolin-1-yl)-1-methylurea] stands 20 nM.
On the same count and under the same terms, under `CN(C(=O)Nc1ccc(F)c(Cl)c1)C1COCc2[nH]c(=O)c3cc(F)c(F)cc3c21` (racemic) [Compound 24, 3-(3-Chloro-4-fluorophenyl)-1-(8,9-difluoro-6-oxo-1,4,5,6-tetrahydro-2H-pyrano[3,4-c]isoquinolin-1-yl)-1-methylurea] stands 10 nM; under `CC1Cc2[nH]c(=O)c3ccccc3c2C(N(C)C(=O)Nc2ccc(F)c(Cl)c2)C1` (racemic) [Compound 26, 3-(3-Chloro-4-fluorophenyl)-1-methyl-1-(3-methyl-6-oxo-1,2,3,4,5,6-hexahydrophenanthridin-1-yl)urea], 2900 nM; under `CCN(C(=O)Nc1ccc(F)c(Cl)c1)C1COCc2[nH]c(=O)c3cc(F)c(F)cc3c21` (racemic) [Compound 45, 3-(3-Chloro-4-fluorophenyl)-1-(8,9-difluoro-6-oxo-1,4,5,6-tetrahydro-2H-pyrano[3,4-c]isoquinolin-1-yl)-1-ethylurea], 10 nM.
Still for that read-out and setting: the figure for `CN(C(=O)Nc1ccc(F)c(C#N)c1)C1COCc2[nH]c(=O)c3cc(F)c(F)cc3c21` (racemic) [Compound 106, 3-(3-Cyano-4-fluorophenyl)-1-(8,9-difluoro-6-oxo-1,4,5,6-tetrahydro-2H-pyrano[3,4-c]isoquinolin-1-yl)-1-methylurea] is 20 nM.
Regarding `CN(C(=O)Nc1ccc(F)c(Cl)c1)C1COC(=O)c2[nH]c(=O)c3cc(F)c(F)cc3c21` (racemic) [Compound 152, 3-(3-Chloro-4-Fluorophenyl)-1-(8,9-difluoro-4,6-dioxo-1,4,5,6-tetrahydro-2H-pyrano[3,4-c]isoquinolin-1-yl)-1-methylurea], the EC50 is 20 nM.
The same measure, in the same setting: under `CN(C(=O)Nc1ccc(F)c(C#N)c1)C1CS(=O)(=O)Cc2[nH]c(=O)c3cc(F)ccc3c21` (racemic) [Compound 215, 3-(3-Cyano-4-fluorophenyl)-1-(8-fluoro-3,3-dioxido-6-oxo-1,4,5,6-tetrahydro-2H-thiopyrano[3,4-c]isoquinolin-1-yl)-1-methylurea] stands not below 25000 nM; under `CN(C(=O)Nc1ccc(F)c(C(F)F)c1)C1COCc2nc(NCCN)c3cc(F)c(F)cc3c21` (racemic) [Compound 239, 1-(6-((2-Aminoethyl)amino)-8,9-difluoro-1,4-dihydro-2H-pyrano[3,4-c]isoquinolin-1-yl)-3-(3-(difluoromethyl)-4-fluorophenyl)-1-methylurea], 300 nM; under `CN(C(=O)Nc1ccc(F)c(Cl)c1)[C@H]1COCc2[nH]c(=O)c3cc(F)ccc3c21` (single isomer, unassigned) [Compound 40], 1000 nM.
Consider `CN(C(=O)Nc1ccc(F)c(Cl)c1)[C@@H]1COCc2[nH]c(=O)c3cc(F)ccc3c21` (single isomer, unassigned) [Compound 41], for which the EC50 is 10 nM.
The same measure, in the same setting: the figure for `CN(C(=O)Nc1ccc(F)c(Cl)c1)C1CCCc2[nH]c(=O)c3c(c21)CCOC3` (single isomer, unassigned) [Compound 60, 3-(3-Chloro-4-fluorophenyl)-1-methyl-1-(5-oxo-1,4,5,6,7,8,9,10-octahydro-2H-pyrano[3,4-c]quinolin-10-yl)urea] is 3200 nM.

Still in this assay, the particulars now being: inhibition of rcDNA formation in HepDE19 cells (HepG2 derived), Tet-free medium, 7 day incubation, Quantigene 2.0 bDNA readout, top concentration 25 μM; read-out: DE-19bDNA EC50.
On to `CN(C(=O)Nc1ccc(F)c(Cl)c1)C1CCCc2[nH]c(=O)c3ccccc3c21` (single isomer, unassigned) [Compound 16, 3-(3-Chloro-4-fluorophenyl)-1-methyl-1-(6-oxo-1,2,3,4,5,6-hexahydrophenanthridin-1-yl)urea], for which the EC50 stood at 760 nM.
On the same count and under the same terms, the figure for `CN(C(=O)Nc1ccc(F)c(Cl)c1)C1CCCc2[nH]c(=O)c3ccccc3c21` (single isomer, unassigned) [Compound 17, 3-(3-Chloro-4-fluorophenyl)-1-methyl-1-(6-oxo-1,2,3,4,5,6-hexahydrophenanthridin-1-yl)urea] is 50 nM.
Same read-out and setting: under `CN(C(=O)Nc1ccc(F)c(Cl)c1)C1COCc2[nH]c(=O)c3ccccc3c21` (single isomer, unassigned) [Compound 36, 3-(3-Chloro-4-fluorophenyl)-1-methyl-1-(6-oxo-1,4,5,6-tetrahydro-2H-pyrano[3,4-c]isoquinolin-1-yl)urea] stands 4600 nM.
Still for that read-out and setting: the figure for `CN(C(=O)Nc1ccc(F)c(Cl)c1)C1COCc2[nH]c(=O)c3ccccc3c21` (single isomer, unassigned) [Compound 37, 3-(3-Chloro-4-fluorophenyl)-1-methyl-1-(6-oxo-1,4,5,6-tetrahydro-2H-pyrano[3,4-c]isoquinolin-1-yl)urea] is 30 nM; for `CN(C(=O)Nc1ccc(F)c(Cl)c1)C1CCCc2[nH]c(=O)c3c(c21)CCCC3` (single isomer, unassigned) [Compound 46, 3-(3-Chloro-4-fluorophenyl)-1-methyl-1-(6-oxo-1,2,3,4,5,6,7,8,9,10-decahydrophenanthridin-1-yl)urea] it is 1200 nM.
As for `CN(C(=O)Nc1ccc(F)c(Cl)c1)C1CCCc2[nH]c(=O)c3c(c21)CCCC3` (single isomer, unassigned) [Compound 47, 3-(3-Chloro-4-fluorophenyl)-1-methyl-1-(6-oxo-1,2,3,4,5,6,7,8,9,10-decahydrophenanthridin-1-yl)urea], the EC50 was 60 nM.
The same measure, in the same setting: under `CN(C(=O)Nc1ccc(F)c(F)c1)C1CCCc2[nH]c(=O)c3c(c21)CCCC3` (single isomer, unassigned) [Compound 48, 3-(3,4-Difluorophenyl)-1-methyl-1-(6-oxo-1,2,3,4,5,6,7,8,9,10-decahydrophenanthridin-1-yl)urea] stands 3100 nM; under `CN(C(=O)Nc1ccc(F)c(F)c1)C1CCCc2[nH]c(=O)c3c(c21)CCCC3` (single isomer, unassigned) [Compound 49, 3-(3,4-Difluorophenyl)-1-methyl-1-(6-oxo-1,2,3,4,5,6,7,8,9,10-decahydrophenanthridin-1-yl)urea], 160 nM.
The same measure, in the same setting: under `CCN(C(=O)Nc1ccc(F)c(F)c1)C1CCCc2[nH]c(=O)c3c(c21)CCCC3` (single isomer, unassigned) [Compound 50, 3-(3,4-Difluorophenyl)-1-ethyl-1-(6-oxo-1,2,3,4,5,6,7,8,9,10-decahydrophenanthridin-1-yl)urea] stands 6800 nM; under `CCN(C(=O)Nc1ccc(F)c(F)c1)C1CCCc2[nH]c(=O)c3c(c21)CCCC3` (single isomer, unassigned) [Compound 51, 3-(3,4-Difluorophenyl)-1-ethyl-1-(6-oxo-1,2,3,4,5,6,7,8,9,10-decahydrophenanthridin-1-yl)urea], 100 nM; under `CCN(C(=O)Nc1ccc(F)c(Cl)c1)C1CCCc2[nH]c(=O)c3c(c21)CCCC3` (single isomer, unassigned) [Compound 53, 3-(3-Chloro-4-fluorophenyl)-1-ethyl-1-(6-oxo-1,2,3,4,5,6,7,8,9,10-decahydrophenanthridin-1-yl)urea], 2600 nM.
As to `CCN(C(=O)Nc1ccc(F)c(Cl)c1)C1CCCc2[nH]c(=O)c3c(c21)CCCC3` (single isomer, unassigned) [Compound 54, 3-(3-Chloro-4-fluorophenyl)-1-ethyl-1-(6-oxo-1,2,3,4,5,6,7,8,9,10-decahydrophenanthridin-1-yl)urea], the EC50 is 30 nM.

For the origin of these results see US20230108906A1, “SUBSTITUTED BICYCLIC AND TRICYCLIC UREAS AND AMIDES, ANALOGUES THEREOF, AND METHODS USING SAME” (Arbutus Biopharma Corporation, priority 2019, published 2023).
